Assay results from article PMC10403574, “Discovery of a pyrrole-pyridinimidazole derivative as novel SIRT6 inhibitor for sensitizing pancreatic cancer to gemcitabine” (Cell Death & Disease, 2023).

Key:
SIRT6 = SIRT6 (Homo sapiens, UniProt Q8N6T7); assay: Fluor-De-Lys (FDL) SIRT6 deacetylation assay; assay type: biochemical; set-up: The human full-length SIRT6 gene was inserted into the prokaryotic expression vector (pET-28a (+)); inferred from the pET-28a(+) vector, Ni-NTA purification and Ni-NTA biosensor loading); made in house; host or cells: Escherichia coli BL21 (DE3)
Description: The human full-length SIRT6 gene was inserted into the prokaryotic expression vector (pET-28a (+)). The verified recombinant plasmid was transformed into Escherichia coli BL21 (DE3) expression strain and cultured overnight at 37 °C on LB plates supplemented with 50 μg/mL kanamycin. Single colonies were inoculated in fluid kanamycin-containing LB mediums. It was shaken at 160 rpm for 16 h at 37 °C and transferred to kanamycin-containing LB medium at a ratio of 1:100. It was shaken at 160 rpm at 37 °C until the OD600 reached 0.6. The Isopropyl-β-d-thiogalactopyranoside was added to make the final concentration of solution 0.5 mmol/L, cultured for 15 °C and 160 rpm for 24 h.
Bacterial liquid was harvested at 12,000 rpm at 4 °C for 20 min, and then re-suspended in Lysis buffer (20 mmol/L Hepes pH 7.5, 20 mmol/L imidazole, 5% Glycerol, 500 mmol/L NaCl). Cell pellets were disrupted by high-pressure crusher (JNBIO, Guangzhou China) and centrifuged (4 °C, 12000 rpm, for 20 min). Supernatant was collected and purified by FPLC with a 1 mL Ni–NTA Sepharose column (GE Healthcare, Stamford, USA). The SIRT6 protein was eluted at containing 50 mM, 100 mM, 150 mM, 200 mM, and 500 mM imidazole in elution buffer. The purified SIRT6 protein was dialyzed in dialysis buffer (50 mM Tris-HCl, 137 mM NaCl, 2.7 mM KCl, 1 mM MgCl2). The purified SIRT6 protein was analyzed by SDS-PAGE.
(§1) Fluor-De-Lys (FDL) assays were used for the examination of the deacetylation activities of sirtuins as described previously. For the detection of SIRT6 activity, the 50-μL reaction mixture contained 5 μM SIRT6, 2.5 mM NAD^+ (β-Nicotinamide adenine dinucleotide hydrate, Sigma, N1636), 75 μM RHKK-Ac-AMC (GL Biochem, Shanghai), compounds/DMSO, and assay buffer. The reactions were incubated at 37 °C for 2 h, added 50 μL stop solution (40 mM nicotinamide, 6 mg/mL trypsin) at 25 °C for 30 min. Fluorescence intensity was measured at an excitation wavelength of 360 nm and an emission wavelength of 460 nm. IC50 values were calculated in GraphPad Prism version 8.00.

BXPC-3 cells = assay: Western blot of BXPC-3 cells; assay type: cell-based
Description: Cells were harvested and lysed in a lysis buffer (solarbio, R0010) supplementing 1 mM PMSF and protease inhibitor (TargetMol, USA). […] The blocked membrane was incubated with primary antibodies:SIRT6 (1:1000, Cell Signaling Technology, Cat#12486S, RRID:AB_2636969), Histone H3 Antibody (1:1000, Cell Signaling Technology, Cat#9715S, RRID:AB_331563), β-Actin (1:2000, Cell Signaling Technology, Cat#4970S, RRID:AB_2223172), Cleaved caspases-3 (1:1000, Cell Signaling Technology, Cat#9661S, RRID:AB_2341188), Cleaved Caspase-9 (Asp315) (1:1000, Cell Signaling Technology, Cat#20750S,RRID:AB_2798848), Cleaved PARP (1:1000, Cell Signaling Technology, Cat#5625S, RRID:AB_10699459), AKT (1:1000, Cell Signaling Technology, Cat#9272S, RRID:AB_329827), Phospho-AKT (Ser473) (D9E) (1:1000, Cell Signaling Technology, Cat#4060S, RRID:AB_2315049), ERK1/2 (1:1000, Cell Signaling Technology, Cat#4695S, RRID:AB_390779), Phospho-p44/42 MAPK (ERK1/2) (Thr202/Tyr204) (1:1000, Cell Signaling Technology, Cat#4370S, RRID:AB_2315112), Cyclin D1 (E3P5S) (1:1000, Cell Signaling Technology, Cat#55506 S, RRID:AB_2827374), Phospho-mTOR(Ser2448) (1:1000,Cell Signaling Technology, Cat#5536S, RRID:AB_10691552), Phospho-p70S6Kinase (Thr421/Ser424) (1:1000, Cell Signaling Technology, Cat#9204 S, RRID:AB_2265913), Phospho-Histone H2A.X (Ser139) (1:1000, Cell Signaling Technology, Cat#9718S, RRID:AB_2118009) at 4 °C overnight. After being washed with TBST, the membranes were incubated with horseradish peroxidase-conjugated secondary antibodies at room temperature for 1 h. Then, the membranes were detected by Tanon 5200 (Tanon, Beijing, China).

HUVEC cells = assay: MTT cytotoxicity, normal HUVEC cells; assay type: cell-based; details: 72 h
[1] = biological target: T1, SIRT6 mutant (V70A and F86A) (Homo sapiens, UniProt Q8N6T7, F86A/V70A); assay: FDL assay on SIRT6 mutant (V70A and F86A); assay type: biochemical
T1 construct: The human full-length SIRT6 gene was inserted into the prokaryotic expression vector (pET-28a (+)); inferred from the pET-28a(+) vector and Ni-NTA purification of the wild-type construct); made in house; host or cells: Escherichia coli BL21 (DE3) (inferred from the wild-type protocol)
Description: as §1
To explore the interaction mechanism, we performed the molecular docking experiment between SIRT6 (PDB ID: 6QCJ) and 8a. […] 8a mainly formed hydrogen bond with the backbone amino group of D187 and the ribose hydroxyl group of the coenzyme NAD^+, and stabilized the whole system by hydrophobic interactions with key amino acids such as I8, V70, W71, F82 and F86 (Fig. 2g). To verify this binding model, the mutant (V70A and F86A) of SIRT6 was constructed by site mutation. […] Moreover, there were also some other potential binding pockets predicted by molecular docking (data not shown). Based on the prediction, we constructed other two SIRT6 mutants (E140A/R195A and T184A/S191A/P193A/E283A). […]

SIRT6, sequence (Q8N6T7 whole entry): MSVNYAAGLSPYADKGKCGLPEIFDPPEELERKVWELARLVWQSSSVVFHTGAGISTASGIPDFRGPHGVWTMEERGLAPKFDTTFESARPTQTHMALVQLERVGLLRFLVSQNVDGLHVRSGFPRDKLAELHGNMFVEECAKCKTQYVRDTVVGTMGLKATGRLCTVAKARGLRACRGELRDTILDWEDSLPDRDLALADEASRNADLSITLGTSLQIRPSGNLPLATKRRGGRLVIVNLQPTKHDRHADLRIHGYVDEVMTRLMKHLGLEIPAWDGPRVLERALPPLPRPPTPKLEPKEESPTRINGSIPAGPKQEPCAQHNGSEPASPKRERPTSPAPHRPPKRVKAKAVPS
T1 sequence (Q8N6T7 whole entry V70A/F86A): as the sequence (Q8N6T7 whole entry) above, with V70A, F86A counted along it

In the case of `Br.CN(C)C(SCCCCCCn1cnc2c(-c3cc(Br)c(Br)[nH]3)nccc21)=[N+](C)C.[Cl-]` [Compound 8a], the IC50 (SIRT6) is reported as 7.46 ± 0.79 µM, the “Inhibition rate (%)” value (SIRT6; fixed concentration of 25 μM, RHKK-Ac-AMC, NI = no inhibition) is reported as 75.6% and the “cyclin D1 expression” value (BXPC-3 cells; BXPC-3, 48 h, dose-dependent) is reported as “decreased”. The “expression of cleaved-PARP, cleaved-Caspase3, and cleaved-Caspase9” value (BXPC-3 cells; BXPC-3, western blot) was “significantly up-regulated”, the “p-mTOR, p-P70S6K, p-AKT, and p-ERK” value (BXPC-3 cells; BXPC-3, western blot) was “significantly down-regulated” and the “acetylation level of H3K9” value (BXPC-3 cells; BXPC-3 cells, western blot, dose-dependent) was “increased”. The IC50 (HUVEC cells) was 41 µM, the IC50 ([1]; FDL assay) was 79 ± 9 µM and the “increase of IC50 to the mutant (V70A and F86A)” value ([1]; versus wild-type SIRT6) was “approximately 10 fold”.
